{"source": "patent US20180369203A1", "about": "“METHODS OF TREATING CANCER BY ADMINISTERING A MEK INHIBITOR IN COMBINATION WITH A PROTEASOME INHIBITOR” (The Jackson Laboratory, priority 2015, published 2018)", "key": {"A2058 cells [1]": {"tested_on": "A2058 cells", "assay": "Experimental melanoma metastasis, i.v. luciferase-expressing A2058 cells in NOD/SCID mice", "assay_type": "in vivo", "conditions": "n=10 per group", "method": "FIGS. 6A-N show combined MEK and proteasome inhibition exerts potent tumor-suppressive effects. (A) After treatments with 20 nM AZD6244, 100 nM Bortezomib, or both for 24 hr, viable cells were quantitated by CellTiter® Blue (mean±SD, n=6, ANOVA). (B and C) 1×10^6 A2058 cells were s.c. injected into NOD/SCID mice. After 7 days, mice were treated with DMSO, 5 mg/Kg AZD6244, 0.5 mg/Kg Bortezomib, or the combination via i.p. injection three times a week. Tumor volumes were measured using a caliper weekly (mean±SEM, ANOVA). Tumor growth curves were fitted to exponential growth models to derive tumor-doubling time (DT). Kaplan-Meier survival curve was plotted for each group (Log-rank test). (D) Proteins were detected by immunoblotting, 3 tumors per group. (E) Tumor lysates were used to quantitate AOs, 5 tumors per group (mean±SD, n=3, ANOVA). (F) Tumor lysates were used to seed Aβ1-42 peptides, 5 tumors per group (mean±SD, n=3, ANOVA). (G-H) Tumor sections were stained with CR, 5 tumors per group. […] Total CR fluorescence in each field was quantitated using ImageJ and normalized against total nuclei (median, n=50, ANOVA). […] Body weights were monitored weekly (mean±SD, n=10, ANOVA). […]\nA2058 cells were s.c. injected into the left flanks of 9-week-old female NOD.CB17-Prkdc/J (NOD/SCID) mice (The Jackson Laboratory). […] Tumor volumes were calculated following the formula 4/3πR^3. […]"}, "A2058 cells [2]": {"tested_on": "A2058 cells", "assay": "Ubiquitination proteomics (UbiScan, LC-MS/MS) of A2058 cells", "assay_type": "cell-based, human", "conditions": "20 nM AZD6244, 8 hrs vs DMSO", "method": "(A) GFP and GFP-GR plasmids were co-transfected into HEK293T cells followed by treatments with 20 nM AZD6244, 20 μM U0126, or 200 nM 17-DMAG for 4 hr. (B) GFP-GR plasmids were co-transfected into HEK293T cells with HA-Ub-K48 plasmids, which encode a mutant ubiquitin that can be conjugated to protein substrates only via lysine 48. Following treatments with 20 nM AZD6244 or 200 nM 17-DMAG for 4 hr, GFP-GR proteins were precipitated and ubiquitination was detected using anti-HA antibodies. (C) Denatured firefly luciferases were incubated with lysates of A2058 cells treated with DMSO or 20 nM AZD6244 (mean±SD, n=4, ANOVA). (D) A2058 cells were treated with 20 nM AZD6244, and ubiquitinated proteins were detected in both detergent-soluble and -insoluble fractions using Lys48-specific ubiquitin antibodies. […] (G) Experimental procedures of MS-based quantitation of ubiquitinated peptides, two technical replicates per treatment. […] (Q) Endogenous RPL15 and RPL3 proteins were detected in A2058 cells treated with 20 nM AZD6244 alone or co-treated with 500 nM MG132. (R) Endogenous RPL15 and RPL3 proteins were detected in A2058 cells stably expressing LacZ or HSF1^S326D with AZD6244 treatment. […]\nA2058 cells were grown in 150 mm culture dishes and treated with DMSO or 20 nM AZD6244 for 8 hrs. […] Two technical replicates were analyzed for each treatment."}, "A2058 cells [3]": {"tested_on": "A2058 cells", "assay": "In vivo CR administration in A2058 xenograft with or without combined treatment", "design": "species or system NOD/SCID mice", "method": "FIGS. 7A-H show amyloidogenesis suppresses tumor growth. (A) Sections of melanomas receiving combined treatment were stained with cleaved caspase 3 antibodies followed by CR staining Arrowheads and arrows indicate condensed and fragmented nuclei, respectively. Scale bar: 50 μm. (B) 1×10^6 A2058 cells were s.c. injected into NOD/SCID mice. After 7 days, mice were treated with 1 mg/30 g CR via i.p. injection one day prior to combined treatment. Tumor volumes were measured weekly (mean±SD, ANOVA). […] Lysis buffer containing CR served as a positive control. (D) Kaplan-Meier survival curves were compared (Log-rank test). (E and F) Both detergent-soluble and -insoluble fractions of tumor lysates were used to quantitate amyloids, 3 tumors per group (mean±SD, n=3, Student's t-test). (G) Proteins were detected by immunoblotting, 3 tumors per group. (H) Schematic depiction of the interplay among MEK, ERK, and HSF1, and its role in regulating proteome stability. Balanced proteostasis suppresses toxic protein aggregation and amyloidogenesis, thereby facilitating tumorigenesis. See also FIG. 14.\nThis figure is related to FIG. 7. (A) CR treatment stimulates in vivo melanoma growth and renders melanomas partially resistant to combined MEK and proteasome inhibition. Tumors were harvested at sacrifice and weighed (mean±SD, n=10, ANOVA). (B) CR treatment exacerbates body weight loss in tumor-bearing mice. Body weights were recorded before xenografting and at sacrifice. To derive net body weights of melanoma-bearing mice, tumor weights were subtracted from total body weights. Results are presented as body weight changes before and after xenografting (paired Student's t-test).\nA2058 cells were s.c. injected into the left flanks of 9-week-old female NOD.CB17-Prkdc/J (NOD/SCID) mice (The Jackson Laboratory). For CR treatment, mice were i.p. injected with PBS or CR one day prior to combined AZD6244 and Bortezomib treatments. Tumor volumes were calculated following the formula 4/3πR^3. For experimental metastasis, engineered A2058 cells were transplanted into 10-week-old female NOD/SCID mice via tail vein injections. All mouse experiments were performed under a protocol approved by The Jackson Laboratory Animal Care and Use Committee."}, "HSF1": {"tested_on": "HSF1", "assay": "Dual HSF1 reporter assay (HSE-SEAP / CMV-GLuc) in HEK293T cells", "assay_type": "cell-based", "conditions": "20 μM U0126, 20 nM AZD6244, 1 μM FR180204 or 100 nM Sch772984", "method": "(A) NIH3T3 cells were treated with HS at 43° C. for 30 min, 10 μM tubastatin A for 5 hr, 40 μM VER155008 for 1 hr, 500 nM MG132 for 1 hr, 200 nM 17-DMAG for 1 hr, and 2.5 mM azetidine for 15 min (B) The dual ELK1 reporter system, comprising a serum response element (SRE)-driven secreted embryonic alkaline phosphatase (SEAP) plasmid and a CMV-driven Gaussia luciferase (GLuc) plasmid, was transfected into HEK293T cells. After 24 hr, cells were treatments as in (A) and recovered overnight before measuring reporter activities (mean±SD, n=6, ANOVA). (C and D) NIH3T3 cells were treated with 20 μM U0126 or 20 nM AZD6244 for 3 hr followed by HS and 4-hr recovery. mRNA levels were quantitated by qRT-PCR (mean±SD, n=3, Student's t-test). (E) Immediately after HS, nuclear proteins of NIH3T3 cells treated as in (C) were extracted to measure HSF1-DNA binding by an ELISA-based assay (mean±SD, n=3, ANOVA). (F) HEK293T cells were transfected with dual HSF1 reporter plasmids, a heat-shock element (HSE)-driven SEAP plasmid and a CMV-GLuc plasmid. […] (G) HEK293T cells were treated with different inhibitors overnight. […] After 24 hr, cells were heat shocked at 43° C. for 30 min followed by overnight recovery (mean±SD, n=3, ANOVA). […]\nFIGS. 8A-H illustrate that MEK and ERK inversely regulate the PSR. […] Cell viability was measured by a Guava EasyCyte™ flow cytometer using Guava ViaCount™ reagents (mean±SD, n=5, Student's t test). […] Levels of ERK1 and ERK2 mRNAs were quantitated in HEK293T cells transfected with ERK1-targeting siRNAs by qRT-PCR (mean±SD, n=3, ANOVA). […] Levels of ERK2 and ERK1 mRNAs were quantitated in HEK293T cells transfected with ERK2-targeting siRNAs by qRT-PCR (mean±SD, n=3, ANOVA).\nPlasmids were transfected with TurboFect transfection reagent (Thermo Scientific). SEAP and luciferase activities in culture supernatants were quantitated using a Ziva® Ultra SEAP Plus Detection Kit (Jaden BioScience) and a Gaussia Luciferase Glow Assay Kit (Thermo Scientific), respectively. Luminescence signals were measured by a VICTORS Multilabel plate reader (PerkinElmer)."}, "[4]": {"tested_on": "ERK complexes precipitated from HEK293T cells", "assay": "In vitro kinase assay with immunoprecipitated ERK complexes", "assay_type": "biochemical", "conditions": "1000 ng MBP", "method": "Co-expressed GFP proteins served as internal controls. […] See also FIG. 10.\nSamples were boiled for 5 min to stop reactions."}, "ERK": {"tested_on": "ERK", "assay": "Immunoblotting of ERK and MSK1 phosphorylation in HEK293T cells", "assay_type": "cell-based", "conditions": "inhibitors overnight", "experimental": "Whole-cell protein extracts were prepared in cold cell-lysis buffer (100 mM NaCl, 30 mM Tris-HCl pH 7.6, 1% Triton X-100, 30 mM NaF, 1 mM EDTA, 1 mM sodium orthovanadate, and Halt™ protease inhibitor cocktail from Thermo Scientific). Proteins were separated on SDS-PAGE gels and transferred to nitrocellulose membranes. Primary antibodies were applied in wash buffer overnight at 4° C. Peroxidase-conjugated secondary antibodies were applied at room temperature for 1 hr, and signals were visualized by SuperSignal West chemiluminescent substrate (Thermo Fisher Scientific), followed by exposure to films."}, "HSF1 Ser326": {"tested_on": "HSF1 Ser326", "assay": "HSF1 Ser326 phosphorylation by immunoblotting in HEK293T cells", "assay_type": "cell-based", "conditions": "overnight, 20 μM U0126, 20 nM AZD6244, 1 μM FR180204 or 100 nM Sch772984", "method": "This figure is related to FIG. 3. (A) Validation of phospho-HSF1 Ser326 antibodies. […] (B) MEK blockade impairs HSF1 Ser326 phosphorylation. […] (D-E) S326A mutation impairs HSF1 nuclear translocation. […] (F) Acute MEK depletion diminishes HSF1 proteins. […] HSF1 proteins were detected by immunoblotting. (G) ERK-mediated HSF1 Ser307 phosphorylation depends on MEK. […] Levels of phosphor-HSF1 Ser307 were measured by immunoblotting. (H) HSF1 Ser326 phosphorylation inhibits Ser307 phosphorylation."}}}
{"smiles": "Cn1cnc2c(F)c(Nc3ccc(Br)cc3Cl)c(C(=O)NOCCO)cc21", "note": "[AZD6244, selumetinib]", "values": [{"measurement": "mice with luminescence detected by in vivo imaging", "setting": "A2058 cells [1]", "value": 40, "unit": "%"}, {"measurement": "increase in ubiquitination of RPL3", "setting": "A2058 cells [2]", "value": 13.7, "unit": "fold"}, {"measurement": "increase in ubiquitination of TOR1AIP2", "setting": "A2058 cells [2]", "value": 61.0, "unit": "fold"}]}
{"smiles": "Nc1c(/N=N/c2ccc(-c3ccc(/N=N/c4cc(S(=O)(=O)O)c5ccccc5c4N)cc3)cc2)cc(S(=O)(=O)O)c2ccccc12", "note": "[CR, Congo red]", "values": [{"measurement": "melanoma growth", "setting": "A2058 cells [3]; 1 mg/30 g CR i.p.", "value": "accelerated"}, {"measurement": "tumor suppression imposed by combined MEK and proteasome inhibition", "setting": "A2058 cells [3]; 1 mg/30 g CR i.p. one day prior to combined treatment", "value": "potently antagonized"}, {"measurement": "amyloids in tumor tissues", "setting": "A2058 cells [3]; CR treatment", "value": "reduced"}, {"measurement": "animal survival", "setting": "A2058 cells [3]; CR treatment", "value": "shortened"}, {"measurement": "body conditions", "setting": "A2058 cells [3]; CR treatment", "value": "deteriorated"}, {"measurement": "tumor masses", "setting": "A2058 cells [3]; CR treatment", "value": "enlarged"}, {"measurement": "ubiquitination in tumors", "setting": "A2058 cells [3]; CR treatment", "value": "did not diminish"}, {"measurement": "caspase 3 cleavage in tumors", "setting": "A2058 cells [3]; CR-treated tumors", "value": "reduced"}, {"measurement": "penetration of CR into tumor tissues", "setting": "A2058 cells [3]; absorbance of tumor lysates", "value": "intense light absorption of tumor lysates at 498 nm"}]}
{"smiles": "Nc1[nH]nc2nnc(-c3c(-c4ccccc4)nn4ccccc34)cc12", "note": "[FR180204]", "values": [{"measurement": "transcriptional activation of HSF1", "setting": "HSF1", "value": "activated"}, {"measurement": "phosphorylation of myelin basic protein (MBP) by precipitated ERK complexes", "setting": "[4]", "value": "blocked"}, {"measurement": "ERK phosphorylation", "setting": "ERK", "value": "promoted"}, {"measurement": "HSF1 Ser326 phosphorylation", "setting": "HSF1 Ser326", "value": "enhances"}]}
{"smiles": "O=C(Nc1ccc2[nH]nc(-c3ccncc3)c2c1)[C@@H]1CCN(CC(=O)N2CCN(c3ccc(-c4ncccn4)cc3)CC2)C1", "note": "[Sch772984]", "values": [{"measurement": "transcriptional activation of HSF1", "setting": "HSF1", "value": "activated"}, {"measurement": "ERK phosphorylation", "setting": "ERK", "value": "suppressed"}, {"measurement": "HSF1 Ser326 phosphorylation", "setting": "HSF1 Ser326", "value": "enhances"}]}
